Experimental data from EP0390135A1, “Pyrroloquinoline derivatives, antimicrobial agents using the same and process for preparing the same” (OTSUKA PHARMACEUTICAL CO., LTD., priority 1989, dated 1990).
Converted amounts (≈) assume the structure as drawn. Counter-ions that a name gives are not always drawn. Like-named read-outs stand apart in the source and are kept apart here.

Assays:
physchem = conditions: water, Ratio of dissolution to water
M.morganii IID Kono = experiment: MIC by agar plate dilution method; type: cell-based; conditions: in vitro
Experimental: (§1) In order to investigate the in vitro activity of the under-mentioned compounds against various bacteria, the minimal inhibitory concentration (MIC, µg/mℓ) values were determined by the agar plate dilution method (see Chemotherapy, 22, 1126-1128 (1974)]. The results are shown in Table 1.

P.aeruginosa E-2 = experiment: MIC by agar plate dilution method; type: cell-based
Experimental: as §1

S.aureus FDA209P = experiment: MIC by agar plate dilution method; type: cell-based; conditions: in vitro
Experimental: as §1

E.coli NIHJ JC-2 = experiment: MIC by agar plate dilution method; type: cell-based
Experimental: as §1

P.mirabilis ATCC-29906 = experiment: MIC by agar plate dilution method; type: cell-based
Experimental: as §1

A.calcoaceticus Ac-54 = experiment: MIC by agar plate dilution method; type: cell-based
Experimental: as §1

E.facalis ATCC-21212 = experiment: MIC by agar plate dilution method; type: cell-based; conditions: in vitro
Experimental: as §1

S.marcoscons IFO-12648 = experiment: MIC by agar plate dilution method; type: cell-based; conditions: in vitro
Experimental: as §1

K.pneumoniae NCTC-9632 = experiment: MIC by agar plate dilution method; type: cell-based
Experimental: as §1

P.aeruginosa ATCC-10145 = experiment: MIC by agar plate dilution method; type: cell-based
Experimental: as §1

[1] = Ratio of dissolution to water (water solubility)
[2] = Morganella morganii, read-out: MIC
[3] = Pseudomonas aeruginosa, E2, in vitro, read-out: MIC
[4] = Staphylococcus aureus, FDA209P, read-out: MIC
[5] = Escherichia coli, NIHJJC2, in vitro, read-out: MIC
[6] = Proteus mirabilis, ATCC29906, in vitro, read-out: MIC
[7] = Acinetobacter calcoaceticus, AC54, in vitro, read-out: MIC
[8] = Klebsiella pneumoniae, NCTC9632, in vitro, read-out: MIC
[9] = Pseudomonas aeruginosa, ATCC10145, in vitro, read-out: MIC
[10] = Ratio of dissolution to water, at 20 °C

CC1CN(c2c(F)cc3c(=O)c(C(=O)O)cn4c3c2CC4C)CCN1.Cl (racemic) [Example 10, (±)-8-fluoro-2-methyl-9-(3-methyl-1-piperazinyl)-6-oxo-1,2-dihydro-6H-pyrrolo[3,2,1-ij]quinoline-5-carboxylic acid hydrochloride]
solubility (physchem): 152 mg/mL

CC1Cc2c(N3CCN(C)CC3)c(F)cc3c(=O)c(C(=O)O)cn1c23.Cl (racemic) [Reference Example 3, (±)-8-fluoro-2-methyl-9-(4-methyl-1-piperazinyl)-6-oxo-1,2-dihydro-6H-pyrrolo[3,2,1-ij]quinoline-5-carboxylic acid hydrochloride, reference compound]
solubility (physchem): 12 mg/mL

CC1Cc2c(N3CCN(C)CC3)c(F)cc3c(=O)c(C(=O)O)cn1c23 (racemic) [Test Compound E, 8-fluoro-2-methyl-9-(4-methyl-1-piperazinyl)-6-oxo-1,2-dihydro-6H-pyrrolo[3,2,1-ij]quinoline-5-carboxylic acid, reference compound]
MIC (M.morganii IID Kono; [2]): 0.1 µg/mL (≈ 0.29 µM)
MIC (P.aeruginosa E-2; [3]): 1.56 µg/mL (≈ 4.52 µM)
MIC (S.aureus FDA209P; [4]): 0.2 µg/mL (≈ 0.579 µM)
MIC (E.coli NIHJ JC-2; [5]): 0.1 µg/mL (≈ 0.29 µM)
MIC (P.mirabilis ATCC-29906; [6]): 0.39 µg/mL (≈ 1.13 µM)
MIC (A.calcoaceticus Ac-54; [7]): 0.2 µg/mL (≈ 0.579 µM)
MIC (E.facalis ATCC-21212; read-out: MIC): 1.56 µg/mL (≈ 4.52 µM)
MIC (S.marcoscons IFO-12648; read-out: MIC): 0.1 µg/mL (≈ 0.29 µM)
MIC (K.pneumoniae NCTC-9632; [8]): 0.1 µg/mL (≈ 0.29 µM)
MIC (P.aeruginosa ATCC-10145; [9]): 3.13 µg/mL (≈ 9.06 µM)

CC1Cc2c(N3CCN(C)CC3)c(F)cc3c(=O)c(C(=O)O)cn1c23 (single isomer, unassigned) [Example 7 hydrochloride]
solubility [1, 10]: 230 mg/mL

CC1Cc2c(N3CCN(C)CC3)c(F)cc3c(=O)c(C(=O)O)cn1c23 (single isomer, unassigned; (+)) [Example 7, (+)-8-fluoro-2-methyl-9-(4-methyl-1-piperazinyl)-6-oxo-1,2-dihydro-6H-pyrrolo[3,2,1-ij]quinoline-5-carboxylic acid]
MIC (M.morganii IID Kono; listed as A): 0.05 µg/mL (≈ 0.145 µM)
MIC (P.aeruginosa E-2; in vitro, listed as A): 0.78 µg/mL (≈ 2.26 µM)
MIC (S.aureus FDA209P; listed as A): 0.1 µg/mL (≈ 0.29 µM)
MIC (E.coli NIHJ JC-2; in vitro, listed as A): 0.05 µg/mL (≈ 0.145 µM)
MIC (P.mirabilis ATCC-29906; in vitro, listed as A): 0.2 µg/mL (≈ 0.579 µM)
MIC (A.calcoaceticus Ac-54; in vitro, listed as A): 0.1 µg/mL (≈ 0.29 µM)
MIC (E.facalis ATCC-21212; listed as A): 0.78 µg/mL (≈ 2.26 µM)
MIC (S.marcoscons IFO-12648; listed as A): 0.05 µg/mL (≈ 0.145 µM)
MIC (K.pneumoniae NCTC-9632; in vitro, listed as A): 0.05 µg/mL (≈ 0.145 µM)
MIC (P.aeruginosa ATCC-10145; in vitro, listed as A): 1.56 µg/mL (≈ 4.52 µM)

CC1CN(c2c(F)cc3c(=O)c(C(=O)O)cn4c3c2CC4C)CCN1.Cl (single isomer, unassigned; (+)) [Example 8, (+)-8-fluoro-2-methyl-9-(3-methyl-1-piperazinyl)-6-oxo-1,2-dihydro-6H-pyrrolo[3,2,1-ij]quinoline-5-carboxylic acid hydrochloride]
Ratio of dissolution to water: 385 mg/mL
MIC (M.morganii IID Kono; [2]): 0.012 µg/mL
MIC (P.aeruginosa E-2; [3]): 0.39 µg/mL
MIC (S.aureus FDA209P; [4]): 0.2 µg/mL
MIC (E.coli NIHJ JC-2; [5]): 0.05 µg/mL
MIC (P.mirabilis ATCC-29906; [6]): 0.1 µg/mL
MIC (A.calcoaceticus Ac-54; [7]): 0.39 µg/mL
MIC (E.facalis ATCC-21212; read-out: MIC): 3.13 µg/mL
MIC (S.marcoscons IFO-12648; read-out: MIC): 0.1 µg/mL
MIC (K.pneumoniae NCTC-9632; [8]): 0.05 µg/mL
MIC (P.aeruginosa ATCC-10145; [9]): 0.39 µg/mL

CC1CN(c2c(Cl)cc3c(=O)c(C(=O)O)cn4c3c2CC4C)CCN1.Cl (single isomer, unassigned; (+)) [Example 11, (+)-8-chloro-2-methyl-9-(3-methyl-1-piperazinyl)-6-oxo-1,2-dihydro-6H-pyrrolo[3,2,1-ij]quinoline-5-carboxylic acid hydrochloride]
solubility (physchem): 231 mg/mL
MIC (M.morganii IID Kono; [2]): 0.024 µg/mL
MIC (P.aeruginosa E-2; [3]): 0.78 µg/mL
MIC (S.aureus FDA209P; [4]): 0.39 µg/mL
MIC (E.coli NIHJ JC-2; [5]): 0.1 µg/mL
MIC (P.mirabilis ATCC-29906; [6]): 0.2 µg/mL
MIC (A.calcoaceticus Ac-54; [7]): 0.78 µg/mL
MIC (E.facalis ATCC-21212; read-out: MIC): 6.25 µg/mL
MIC (S.marcoscons IFO-12648; read-out: MIC): 0.2 µg/mL
MIC (K.pneumoniae NCTC-9632; [8]): 0.1 µg/mL
MIC (P.aeruginosa ATCC-10145; [9]): 0.78 µg/mL

CC1CN(c2c(F)cc3c(=O)c(C(=O)O)cn4c3c2CC4C)CC(C)N1.Cl (single isomer, unassigned; (+)) [Example 12, (+)-8-fluoro-2-methyl-9-(3,5-dimethyl-1-piperazinyl)-6-oxo-1,2-dihydro-6H-pyrrolo[3,2,1-ij]quinoline-5-carboxylic acid hydrochloride]
solubility [1]: 175 mg/mL

CC1Cc2c(N3CCC(N)C3)c(F)cc3c(=O)c(C(=O)O)cn1c23.Cl (single isomer, unassigned; (+)) [Example 17 hydrochloride, (+)-8-fluoro-2-methyl-9-(3-amino-1-pyrrolidyl)-6-oxo-1,2-dihydro-6H-pyrrolo[3,2,1-ij]quinoline-5-carboxylic acid hydrochloride]
solubility (physchem): 158 mg/mL

CC1Cc2c(N3CCC(N)C3)c(F)cc3c(=O)c(C(=O)O)cn1c23 (single isomer, unassigned; (+)) [Example 17, (+)-8-fluoro-2-methyl-9-(3-amino-1-pyrrolidinyl)-6-oxo-1,2-dihydro-6H-pyrrolo[3,2,1-ij]quinoline-5-carboxylic acid]
MIC (M.morganii IID Kono; [2]): 0.024 µg/mL (≈ 0.0724 µM)
MIC (P.aeruginosa E-2; [3]): 0.39 µg/mL (≈ 1.18 µM)
MIC (S.aureus FDA209P; [4]): 0.2 µg/mL (≈ 0.604 µM)
MIC (E.coli NIHJ JC-2; [5]): 0.05 µg/mL (≈ 0.151 µM)
MIC (P.mirabilis ATCC-29906; [6]): 0.1 µg/mL (≈ 0.302 µM)
MIC (A.calcoaceticus Ac-54; [7]): 0.39 µg/mL (≈ 1.18 µM)
MIC (E.facalis ATCC-21212; read-out: MIC): 3.13 µg/mL (≈ 9.45 µM)
MIC (S.marcoscons IFO-12648; read-out: MIC): 0.1 µg/mL (≈ 0.302 µM)
MIC (K.pneumoniae NCTC-9632; [8]): 0.05 µg/mL (≈ 0.151 µM)
MIC (P.aeruginosa ATCC-10145; [9]): 0.39 µg/mL (≈ 1.18 µM)

CCNCC1CCN(c2c(F)cc3c(=O)c(C(=O)O)cn4c3c2CC4C)C1.Cl (single isomer, unassigned; (+)) [Example 18, (+)-8-fluoro-2-methyl-9-[3-(ethylaminomethyl)-1-pyrrolidinyl]-6-oxo-1,2-dihydro-6H-pyrrolo[3,2,1-ij]quinoline-5-carboxylic acid hydrochloride]
solubility [1]: 195 mg/mL

CC(C)NCC1CCN(c2c(F)cc3c(=O)c(C(=O)O)cn4c3c2CC4C)C1 (single isomer, unassigned; (+)) [Example 19, (+)-8-fluoro-2-methyl-9-[3-(isopropylaminomethy 1-pyrrolidyl]-6-oxo-1,2-dihydro-6H-pyrrolo[3,2,1-ij]quinoline-5-carboxylic acid hydrochloride]
solubility [1, 10]: 135 mg/mL

CC1CN(c2c(F)cc3c(=O)c(C(=O)O)cn4c3c2CC4C)CCN1 (single isomer, unassigned; (+)) [Example 20, (+)-8-fluoro-2-methyl-9-(3-methyl-1-piperazinyl)-6-oxo-1,2-dihydro-6H-pyrrolo[3,2,1-ij]quinoline-5-carboxylic acid]
solubility [1, 10]: 143 mg/mL

CC1Cc2c(N3CCN(C)CC3)c(F)cc3c(=O)c(C(=O)O)cn1c23 (single isomer, unassigned; (-)) [Reference Example 1, (-)-8-fluoro-2-methyl-9-(4-methyl-1-piperazinyl)-6-oxo-1,2-dihydro-6H-pyrrolo[3,2,1-ij]quinoline-5-carboxylic acid, reference compound]
MIC (M.morganii IID Kono; listed as F): 0.78 µg/mL (≈ 2.26 µM)
MIC (P.aeruginosa E-2; in vitro, listed as F): 12.5 µg/mL (≈ 36.2 µM)
MIC (S.aureus FDA209P; listed as F): 3.13 µg/mL (≈ 9.06 µM)
MIC (E.coli NIHJ JC-2; in vitro, listed as F): 0.78 µg/mL (≈ 2.26 µM)
MIC (P.mirabilis ATCC-29906; in vitro, listed as F): 3.13 µg/mL (≈ 9.06 µM)
MIC (A.calcoaceticus Ac-54; in vitro, listed as F): 3.13 µg/mL (≈ 9.06 µM)
MIC (E.facalis ATCC-21212; listed as F): 100 µg/mL (≈ 290 µM)
MIC (S.marcoscons IFO-12648; listed as F): 0.78 µg/mL (≈ 2.26 µM)
MIC (K.pneumoniae NCTC-9632; in vitro, listed as F): 0.78 µg/mL (≈ 2.26 µM)
MIC (P.aeruginosa ATCC-10145; in vitro, listed as F): 25 µg/mL (≈ 72.4 µM)

CC1CN(c2c(F)cc3c(=O)c(C(=O)O)cn4c3c2CC4C)CCN1.Cl (single isomer, unassigned; (-)) [Reference Example 2, (-)-8-fluoro-2-methyl-9-(3-methyl-1-piperazinyl)-6-oxo-1,2-dihydro-6H-pyrrolo[3,2,1-ij]quinoline-5-carboxylic acid hydrochloride, reference compound]
Ratio of dissolution to water: 167 mg/mL

CC1COc2c(N3CCN(C)CC3)c(F)cc3c(=O)c(C(=O)O)cn1c23 (stereo not drawn) [Test Compound G, S-(-)-9-fluoro-3-methyl-10-(4-methyl-1-piperazinyl)-7-oxo-2,3-dihydro-7H-pyrido[1,2,3-de][1,4]benzoxazine-6-carboxylic acid, reference compound]
MIC (M.morganii IID Kono; [2]): 0.1 µg/mL (≈ 0.277 µM)
MIC (P.aeruginosa E-2; [3]): 1.5 µg/mL (≈ 4.15 µM)
MIC (S.aureus FDA209P; [4]): 0.2 µg/mL (≈ 0.553 µM)
MIC (E.coli NIHJ JC-2; [5]): 0.1 µg/mL (≈ 0.277 µM)
MIC (P.mirabilis ATCC-29906; [6]): 0.39 µg/mL (≈ 1.08 µM)
MIC (A.calcoaceticus Ac-54; [7]): 0.39 µg/mL (≈ 1.08 µM)
MIC (E.facalis ATCC-21212; read-out: MIC): 3.13 µg/mL (≈ 8.66 µM)
MIC (S.marcoscons IFO-12648; read-out: MIC): 0.2 µg/mL (≈ 0.553 µM)
MIC (K.pneumoniae NCTC-9632; [8]): 0.1 µg/mL (≈ 0.277 µM)
MIC (P.aeruginosa ATCC-10145; [9]): 3.13 µg/mL (≈ 8.66 µM)
